Laboratory results reported in patent US20250019400A1, “POLYPEPTIDE AND COSMETIC COMPOSITION OR PHARMACEUTICAL COMPOSITION AND USE THEREOF” (SHENZHEN WINKEY TECHNOLOGY CO., LTD, priority 2022, published 2025).

System: smooth muscle contraction in ileum
Assay: Muscle contraction inhibition experiment (acetylcholine-induced smooth muscle contraction in isolated ileum)
Design: species or system SD rats
Settings: after acetylcholine, rat ileum
Text: 10 week old female SD rats weighing 220 g-260 g.
HW-400S constant temperature smooth muscle trough, BL-420E biological function experimental system, tension transducer, and other instruments as conventional experimental instruments.
acetylcholine chloride (Shanghai Yuanye), chloral hydrate (Shanghai Macklin).
• Acetyl octapeptide-3(Ac-Glu-Glu-Met-Gln-Arg-Arg-Ala-Asp-NH2), at a test concentration of 25 ppm, 50 ppm, 100 ppm, and 200 ppm, respectively; • Acetyl hexapeptide-30(Ac-Glu-Asp-Tyr-Tyr-Arg-Leu-NH2), at a test concentration of 25 ppm, 50 ppm, 100 ppm, and 200 ppm, respectively; • the peptide (4), at a test concentration of 25 ppm, 50 ppm, 100 ppm, and 200 ppm, respectively; • the peptide (8), at a test concentration of 25 ppm, 50 ppm, 100 ppm, and 200 ppm, respectively; • the peptide (32), at a test concentration of 100 ppm, 200 ppm, 400 ppm, and 800 ppm, respectively.
The experimental rats were fasted except for water for 12 hours before the experiment. 10% chloral hydrate was injected intraperitoneally into the rats at a dosage of 0.1 mL/25 g, and after the rats were anesthetized, the abdominal cavity was cut open to expose the enlarged cecum. A segment of ileum was taken out from the ileocecal region and washed clean in a tyrode's solution pre-bubbled with oxygen for 10 min, and several 4 cm long segments of ileum were cut and incubated in a tyrode's solution at 4° C. for subsequent use; and both ends of the ileum were tied partially and knotted with cotton threads to form a loop.
The HW-400S constant temperature smooth muscle trough and the BL-420E biological function experimental system were turned on, the tension transducer was connected to channel 1, the incubation temperature was adjusted to 37° C., the instruments were preheated for 0.5 hours, and oxygen was bubbled for more than 10 min. One end of the ileum segment is fixed to the intake bracket port with a cotton thread, and the other end thereof is connected to the tension transducer. The position and height of the transducer were appropriately adjusted to place the excised ileum segment in the center of the smooth muscle trough and then record of ileum activity was started.
After the muscle contraction was stabilized, acetylcholine with a final concentration of 0.1-1 μg/mL was added until a high and stable waveform appears in the muscle activity, and the action lasted for 5 minutes as the initial control. After balancing for 5 minutes, the samples to be tested were added respectively. Each time the test drug was replaced, the ileum segment was replaced with a new one, and relevant data was recorded by the instruments. The inhibition rate of smooth muscle contraction in ileum was calculated according to the following formula:
Inhibition rate of smooth muscle contraction in ileum=(contraction force after acetylcholine administration−contraction force after test sample administration)/contraction force after acetylcholine administration×100%
The experimental data was represented by mean standard deviation (Mean±SD).

| Substance | Inhibition rate of smooth muscle contraction in ileum (25 ppm, Mean±SD) [%] | Inhibition rate of smooth muscle contraction in ileum (50 ppm, Mean±SD) [%] | Inhibition rate of smooth muscle contraction in ileum (100 ppm, Mean±SD) [%] | Inhibition rate of smooth muscle contraction in ileum (200 ppm, Mean±SD) [%] | Inhibition rate of smooth muscle contraction in ileum (800 ppm) [%] |
| --- | --- | --- | --- | --- | --- |
| Ac-Glu-Asp-Tyr-Tyr-Arg-Leu-NH2 (Ac-EDYYRL-NH2) [Acetyl hexapeptide-30, polypeptide in the prior art used as comparison sample, reference compound] | 0.00 ± 2.45 | 0.47 ± 2.09 | 2.73 ± 0.66 | 48.09 |  |
| Ac-Glu-Glu-Met-Gln-Arg-Arg-Ala-Asp-NH2 (Ac-EEMQRRAD-NH2) [Acetyl octapeptide-3, polypeptide in the prior art used as comparison sample, reference compound] | 10.2 ± 1.23 | 32.34 | 47.49 | 58.67 |  |
| Ac-Ser-Met-Gly-Ala-Leu-Ala-NH2 (Ac-SMGALA-NH2) [Peptide (8)] | 31.99 | 34.35 | 56.42 | 67.96 |  |
| Ac-Trp-Ala-Ala-Pro-Phe-Leu-Arg-Ala-NH2 (Ac-WAAPFLRA-NH2) [(32)] |  |  |  |  | 44.41 |
| Ac-Val-Lys-Val-Leu-Gln-Trp-NH2 (Ac-VKVLQW-NH2) [Peptide (4)] | 49.78 | 62.40 | 66.72 | 76.88 |  |
